This experiment concerns Candida albicans SC5314. As to the kind of experiment: Susceptibility of Candida albicans, broth microdilution method. The format is cell-based. The note with it: 24 hours, replicate 1. Here is the method:
Susceptibility of Candida albicans SC5314 to milk EVs and milk EVs loaded with Amphotericin B (AmpB) was performed by the broth microdilution method, using RPMI-1640 medium and MOPS buffer in a concentration range from 200 nM and 0.39 nM for AmpB loaded EVs and equal particles/mL of unloaded EVs. AmpB alone was also tested at concentrations from 8 µM to 15.12 nM.
The broth micro dilution test is performed using sterile round bottomed 96 well microtiter plates. 50 μL of 1×PBS at pH 7.4 is added to Rows 1 to Row 7, except for Column 1 of Row 3 to Row 7. 100 μL of EVs (BMEV, BMEV-AmpB, GMEV and GMEV-AmpB) at 2× desired concentrations is added to Rows 4 to Row 7 of Column 1. 100 μL of AmpB at 2× desired concentration (i.e. 16 μM) is added to Row 3 of Column 1. 2-fold dilutions were performed by transferring 50 μL from Column 1 to Column 10 of Rows 3 to 7, and homogenised to ensure proper dilution of the compound by half. Row 1 was used as a blank for spectrophotometric readings and Row 2 is used as a growth control. After the plates are prepared, 2× inoculum concentration are prepared with a total cell concentration of 1e+3 to 5e+3 CFU/mL prepared in RPMI 1640 media (with glutamine, without bicarbonate, and with phenol red as a pH indicator) in MOPS according to CLSI media preparation guidelines. Each well of the microtiter plate was inoculated with 50 μL of the 2× inoculum to yield a final cell concentration of 0.5e+3 to 2.5e+3 CFU/mL in the wells. After inoculation, the plates are incubated at 35° C. for 24 hours. Post-incubation, the plates are read at 600 nm using the Thermo Scientific Multiskan Go, and data was recorded. Agitation prior to reading the plate will help with accurate readings.
10.4 g powdered RPMI 1640 medium (with glutamine and phenol red, without bicarbonate); 34.53 g MOPS (3-[N-morpholino] propanesulfonic acid) buffer.
Dissolve powdered medium in 900 mL distilled H2O. Add MOPS (final concentration of 0.165 mol/L) and stir until dissolved. While stirring, adjust the pH to 7.0 at 25° C. using 1 mol/L sodium hydroxide.
Add additional water to bring medium to a final volume of 1 L. Filter sterilize and store at 4° C. until use.
The steps for preparation of inoculum are as follows: • I. Candida albicans SC5314 was subcultured from sterile vials onto Sabouraud dextrose agar or Potato Dextrose agar and passaged to ensure purity and viability. The incubation temperature throughout was 35° C. • II. The inoculum was prepared by picking five colonies of ca. 1 mm in diameter from 24-hour old culture. The colonies were suspended in 1 mL of sterile 1×PBS at pH 7.4. A 10-fold dilution was prepared in PBS. 10 μL of the diluted inoculum with equal volume of Trypan Blue was mixed and counted using a haemocytometer. • III. The suspension should be vortexed for 15 seconds and the cell density adjusted by adding sufficient sterile 1×RPMI-1640 to yield a cell concentration of 1e+3 to 5e+3 CFU/mL.
(In general: Dilution methods test growth across graded concentrations, often in twofold steps.)

Structures are written as SMILES.

As for `C[C@@H]1[C@H](O)[C@@H](C)/C=C/C=C/C=C/C=C/C=C/C=C/C=C/[C@H](O[C@@H]2O[C@H](C)[C@@H](O)[C@H](N)[C@@H]2O)C[C@@H]2O[C@](O)(C[C@@H](O)C[C@@H](O)[C@H](O)CC[C@@H](O)C[C@@H](O)CC(=O)O[C@H]1C)C[C@H](O)[C@H]2C(=O)O` [AmpB, Amphotericin B], the “Abs (read at 600 nm)” value reads like this: (AmpB concentration 15.12 nM) 0.13; (AmpB concentration 31.25 nM) 0.15; (AmpB concentration 62.5 nM) 0.13; (AmpB concentration 125 nM) 0.15; (AmpB concentration 250 nM) 0.13; (AmpB concentration 500 nM) 0.08. For the same molecule, the “Abs (read at 600 nm)” value is 0.08 (AmpB concentration 1 μM), 0.00 (AmpB concentration 2 μM), 0.00 (AmpB concentration 4 μM) and 0.00 (AmpB concentration 8 μM).
